# Test results from paper PMC5706100 (Theranostics, 2017).
# Positions of bridges follow the written chain, without caps; N, C: chain ends. No end group written: not given here.
# Key:
# [1] = tested on: CD31-positive plaque neovascularization; assay: Immunofluorescence of FITC-GEBP11 and CD31 in plaque tissue sections; parameters: species or system rabbit
# [2] = tested on: EAhy926 cells; assay: Immunofluorescence staining of FITC-GEBP11 in hypoxia-treated cells; format: cell-based; details: FITC-labelled peptide, after hypoxia treatment
sequence,measurement,setting,value
CTKNSYLMC (disulfide 1-9 (inferred)) [GEBP11 peptide],cell selectivity by immunofluorescence staining,[1]; endothelial cells versus macrophages,selectively target endothelial cells rather than macrophages
same,co-localization with CD31 in plaque section,"[1]; rabbit plaque tissue sections, confocal microscopy",well co-localized with CD31-positive plaque neovascularization and vasa vasorum
same,binding affinity to EAhy926 cells,[2],high binding affinity
